Laboratory results reported in patent EP0565674B1, “METHOD FOR MEMORY ENHANCEMENT AND QUALITY OF LIFE IMPROVEMENT” (CITY OF HOPE, priority 1991, dated 1993).
Structures can show the parent of a compound that is named as a salt.

Assays:
CD-1 male mice [1] = experiment: T-maze footshock active avoidance training (FAAT), retention after 1 week, well-trained mice, prevention of DMSO-induced amnesia; conditions: for trials to criterion compared with DMSO alone / saline alone: 3.5X10^-10 mol icv 2-3 min after FAAT, in DMSO, retention tested one week later, groups of 15 mice
Experimental: (§1) Test Animals. After 1 week in the laboratory, CD-1 male mice obtained from Charles River Breeding Laboratories were caged individually 24-48 hr prior to training and remained singly housed until retention was tested 1 week later. Animal rooms were on a 12-hr light/dark cycle with lights going on at the hour of 0600.
(§2) With the exception of pregnenolone sulfate, all of the substances were dissolved in appropriate amounts of pure DMSO and 2 µl of DMSO alone or containing test substance was injected icv into each mouse after training. Pregnenolone sulfate was dissolved in DMSO and diluted with physiological saline to a final concentration of 1% DMSO or less in saline, and the results of, injections of 2 µl of solutions containing pregnenolone sulfate were compared with those obtained with 2 µl of such saline solutions alone.
(§3) Apparatus, Training and Testing Procedures. The T-maze used for footshock active avoidance training (FAAT) consisted of a black plastic alley (46 cm long) with a start box at one end and two goal boxes (17.5 cm long) at the other. The start box was separated from the alley by a plastic guillotine door that prevented movement down the alley until training began. The alley was 12.5 cm deep and 9.8 cm wide. An electrifiable stainless steel rod floor ran throughout the maze.
(§4) Mice were not permitted to explore the maze before training. A block of training trials began when a mouse was placed in the start box. The guillotine door was raised and a muffled doorbell-type buzzer sounded simultaneously; footshock was 5 sec later through a scrambled grid floor shocker (Colbourn Instruments, model E13-08). The goal box first entered during the first set of trials was designated as "incorrect", and footshock was continued until the mouse entered the other goal box, which in all subsequent trials was designated "correct" for the particular mouse. At the end of each group of trials, the mouse was removed to its home cage.
As training proceeded, a mouse made one of two types of responses. A response latency longer than 5 sec was classed as an escape from the footshock. A response latency less than or equal to 5 sec was considered an avoidance, since the mouse avoided receiving a footshock. Two exclusion criteria were applied to reduce learning variability among mice, as follows. On the first training trials, mice with escape latencies greater than 20 sec were discarded. Mice not having at least one errorless escape latency between 1.5 and 3.5 sec on training trials 3 or 4 were excluded. The total exclusions were fewer than 15%. Mice received five such training trials. One week after training and post-trial administration of vehicle alone or vehicle containing test substance, T-maze training was resumed until each mouse made five avoidance responses in six consecutive training trials (trials to criterion). The recall score was taken to be the percentage of tested mice remembering original training.
In these instances, training was performed under conditions that tend to maximize learning (sound intensity, 65 decibels; footshock current, 0.35 mA; intertrial interval, 45 s).
Surgical Procedure in Preparation for Intracerebroventricular (icv) Administration of Substances. Icv injection was the mode of administration of test substances because this eliminates problems of differential penetration of the blood-brain barrier. The following procedure was performed 24-48 hr prior to training.

CD-1 male mice [2] = experiment: T-maze footshock active avoidance training (FAAT), retention after 1 week, weakly trained mice, memory enhancement
Experimental: as §1, §2, §3, §4
As training proceeded, a mouse made one of two types of responses. A response latency longer than 5 sec was classed as an escape from the footshock. […]

| Structure (SMILES) | trials to criterion compared with DMSO alone / saline alone (CD-1 male mice [1]) | other results |
| --- | --- | --- |
| C[C@]12CC[C@H](O)CC1=CC[C@@H]1[C@@H]2CC[C@]2(C)C(=O)CC[C@@H]12 [DHEA, 5-androsten-3β-ol-17-one] | significantly fewer trials to criterion than mice receiving DMSO alone |  |
| C[C@]12CC[C@H](OS(=O)(=O)O)CC1=CC[C@@H]1[C@@H]2CC[C@]2(C)C(=O)CC[C@@H]12 [DHEAS, dehydroepiandrosterone sulfate] | significantly fewer trials to criterion than mice receiving DMSO alone |  |
| C[C@]12CCC(=O)C=C1CC[C@@H]1[C@@H]2[C@@H](O)C[C@]2(C=O)[C@@H](C(=O)CO)CC[C@@H]12 [aldosterone, 4-pregnen-11β,21-diol-3,18,20-trione] | significantly fewer trials to criterion than mice receiving DMSO alone |  |
| C[C@]12CCC(=O)C=C1CC[C@@H]1[C@@H]2CC[C@]2(C)C(=O)CC[C@@H]12 [androstenedione, 4,androsten-3,17-dione] | significantly fewer trials to criterion than mice receiving DMSO alone |  |
| C[C@]12CCC(=O)C[C@@H]1CC[C@@H]1[C@@H]2CC[C@]2(C)[C@@H](O)CC[C@@H]12 [dihydrotestosterone, 5α-androstan-17β-ol-3-one] | significantly fewer trials to criterion than mice receiving DMSO alone |  |
| C[C@]12CC[C@@H]3c4ccc(O)cc4CC[C@H]3[C@@H]1CC[C@@H]2O [estradiol, 1,3,5(10)-estratrien-3,17β-diol] | significantly different from those obtained with DMSO alone and significantly greater than those receiving saline alone |  |
| C[C@]12CC[C@@H]3c4ccc(O)cc4CC[C@H]3[C@@H]1CCC2=O [estrone, 1,3,5(10)-estratrien-3-ol-17-one] | significantly different from those obtained with DMSO alone and significantly greater than those receiving saline alone |  |
| CC(=O)C1CCC2C3CC=C4CC(OS(=O)(=O)O)CCC4(C)C3CCC12C (stereo not drawn) [pregnenolone sulfate, 5-pregnen-3β-ol-20-one sulfate, sodium salt] |  | potency relative to DHEA (CD-1 male mice [2]; memory enhancement in mice): ~1000 times; potency relative to pregnenolone (CD-1 male mice [2]; memory enhancement in mice): approximately 10 times |
| CC(=O)[C@H]1CC[C@H]2[C@@H]3CC=C4C[C@@H](O)CC[C@]4(C)[C@H]3CC[C@]12C [pregnenolone, 5-pregnen-3β-ol-20-one] | significantly fewer trials to criterion than mice receiving DMSO alone | trials to criterion (CD-1 male mice [2]; weakly trained mice, 3.5X10^-15 mol per mouse icv, p < 0.05 vs vehicle controls (9.30±0.47), mean ± SEM): 7.70±0.55; potency on a molar basis relative to the other two substances tested (DHEA, testosterone) (CD-1 male mice [1]; from dose-response curves): at least 100 times |
| CC(=O)[C@H]1CC[C@H]2[C@@H]3CCC4=CC(=O)CC[C@]4(C)[C@H]3CC[C@]12C [progesterone, 4-pregnen-3,20-dione] | significantly different from those obtained with DMSO alone and significantly greater than those receiving saline alone |  |
| C[C@]12CC[C@H]3[C@@H](CCC4=CC(=O)CC[C@@]43C)[C@@H]1CC[C@@H]2O [testosterone, 4-androsten-17β-ol-3-one] | significantly fewer trials to criterion than mice receiving DMSO alone |  |
